Reference: ChEMBL document CHEMBL2094260, “Malaria Box Tuberculosis Screening Data”
Converted amounts (≈) assume the structure as drawn.

Tested on: Mycobacterium tuberculosis
Assay: MMV: Screen against Mtb, single point, non replicating, at 25uM
Type: functional
Conditions: not given
`Cc1cc(NCCN2CCCCC2)c2ccc3ccccc3c2n1` showed an inhibition at 25 µM of 15.5%.
Work on `COc1ccc(-c2cc(=O)oc3c4c(ccc23)OCN(Cc2ccc(F)cc2)C4)cc1` yielded an inhibition at 25 µM of 22.3%.
In the case of `CCOc1ccc2nc(C)cc(Nc3ccc(N(C)C)cc3)c2c1`, the inhibition at 25 µM is reported as 15.7%.
For `CC1CCN(Cc2ccc(NC(=O)c3cc4ccc5cccnc5c4[nH]3)cc2)CC1`, the inhibition at 25 µM was 13.8%.
Compound `Oc1ccc2ccccc2c1CNc1nc2ccccc2[nH]1` has an inhibition at 25 µM of 35.9%.
For `O=C(Nc1nc(-c2ccccn2)cs1)c1ccccc1Br`, the inhibition at 25 µM was 84.5%.
With `COc1ccc(C(O)(CCC(C)C)C(CN2CCOCC2)c2ccc(Cl)cc2)cc1` (configuration not stated) the inhibition at 25 µM was 10%.
For `COc1nc(Nc2ccc(C(C)C)cc2)nc(OC)n1`, the inhibition at 25 µM was 8.02%.
`O=C(NC(c1ccccc1)c1ccc2cccnc2c1O)c1ccccc1` (configuration not stated) gave an inhibition at 25 µM of 17.1%.
For `COc1ccc2nc(C)cc(Nc3cccc(O)c3)c2c1`, the inhibition at 25 µM was 8.19%.
For `Cc1c(C)n(Cc2ccc(F)cc2)c2ccc(C(=O)NCc3ccco3)cc12`, the inhibition at 25 µM was 11.7%.
For `CCOC(=O)C1CCN(C(=O)CN2C(=O)c3ccccc3C2c2c[nH]c3ccccc23)CC1` (configuration not stated), the inhibition at 25 µM was 8.89%.
For `CCN(CC)c1ccc(NC(=O)c2cccs2)cc1`, the inhibition at 25 µM was 13.1%.
With `Cc1cc(Nc2ccc(C)c(Cl)c2)n2nc(C(F)(F)F)nc2n1` the inhibition at 25 µM was 4.53%.
`Cc1ccc(OCCCCCCNCCO)c(C)c1` showed an inhibition at 25 µM of 13%.
`Cc1ccc(-c2cc(C(=O)Nc3ccc(S(=O)(=O)N4CCCCC4)cc3)[nH]n2)c(O)c1` gave an inhibition at 25 µM of 9.41%.
With `Cc1cc(Nc2ccc(Cl)cc2)n2nc(C(F)(F)F)nc2n1` the inhibition at 25 µM was 10.3%.
With `Cc1cc(=O)oc2c1ccc1oc(C(=O)c3ccccc3)c(C)c12` the inhibition at 25 µM was 21.4%.
Work on `CCC(=O)Nc1nnc(Cc2ccc(OC)c(OC)c2)s1` yielded an inhibition at 25 µM of 1.56%.
With `CCn1c2c(c(=N)c3c1CCC3)CCCC2` the inhibition at 25 µM was 8.24%.
For `CCCCN(CCCC)S(=O)(=O)c1ccc(NC(=O)c2ccco2)cc1`, the inhibition at 25 µM was 6.97%.
With `Cc1cc(C)c2c(c1)OCN(Cc1ccccc1Cl)C2` the inhibition at 25 µM was 12%.
`Cc1ccc(-c2cc3c(nn2)-c2ccccc2C3=O)cc1` showed an inhibition at 25 µM of 17.3%.
With `Oc1ccc(C(=C(Cl)Cl)c2ccc(O)cc2)cc1` the inhibition at 25 µM was 0.782%.
Work on `Cc1cccc(Nc2nc(N)c3ccccc3n2)c1` yielded an inhibition at 25 µM of -2.28%.
`O=C(NCC(c1ccsc1)N1CCCCCC1)c1ccc(C(F)(F)F)cc1` (configuration not stated) showed an inhibition at 25 µM of 10.5%.
Compound `COc1ccc(-c2nc(N3CCN(C(=O)C4CCCCC4)CC3)c3c4c(sc3n2)CCCC4)cc1` has an inhibition at 25 µM of 12.7%.
Work on `O=C(Nc1ccccc1O)c1ccc(Oc2cccc(C(=O)Nc3ccccc3O)c2)cc1` yielded an inhibition at 25 µM of 11.7%.
In the case of `Cc1ccc(S(=O)(=O)c2c(COC(=O)c3cccc(C)c3)c(-c3ccccc3)nn2C)cc1`, the inhibition at 25 µM is reported as 8.24%.
With `Cc1[nH]c(-c2ccc(F)cc2)cc1C(=O)NC1CCN(Cc2ccccc2)CC1` the inhibition at 25 µM was 4%.

Tested on: Mycobacterium tuberculosis
Assay: MMV: CRC and MIC90 against Mtb (replicating)
Type: functional
Conditions: not given
`Cc1cc(NCCN2CCCCC2)c2ccc3ccccc3c2n1` gave an MIC90 of 39.1 µM (≈ 12.5 µg/mL).
Work on `COc1ccc(-c2cc(=O)oc3c4c(ccc23)OCN(Cc2ccc(F)cc2)C4)cc1` yielded an MIC90 of 37.5 µM (≈ 15.7 µg/mL).
With `CCOc1ccc2nc(C)cc(Nc3ccc(N(C)C)cc3)c2c1` the MIC90 was 38.3 µM (≈ 12.3 µg/mL).
`CC1CCN(Cc2ccc(NC(=O)c3cc4ccc5cccnc5c4[nH]3)cc2)CC1` showed an MIC90 of 33.3 µM (≈ 13.3 µg/mL).
With `Oc1ccc2ccccc2c1CNc1nc2ccccc2[nH]1` the MIC90 was 74.1 µM (≈ 21.4 µg/mL).
`O=C(Nc1nc(-c2ccccn2)cs1)c1ccccc1Br` gave an MIC90 of 48.7 µM (≈ 17.5 µg/mL).

Tested on: Mycobacterium tuberculosis
Assay: MMV: CRC and MIC90 against Mtb (non replicating)
Type: functional
Conditions: not given
In the case of `Cc1cc(NCCN2CCCCC2)c2ccc3ccccc3c2n1`, the MIC90 is reported as greater than 100 µM.
`COc1ccc(-c2cc(=O)oc3c4c(ccc23)OCN(Cc2ccc(F)cc2)C4)cc1` gave an MIC90 greater than 100 µM.
For `CCOc1ccc2nc(C)cc(Nc3ccc(N(C)C)cc3)c2c1`, the MIC90 was 67.4 µM (≈ 21.7 µg/mL).
`CC1CCN(Cc2ccc(NC(=O)c3cc4ccc5cccnc5c4[nH]3)cc2)CC1` gave an MIC90 greater than 100 µM.
For `O=C(Nc1nc(-c2ccccn2)cs1)c1ccccc1Br`, the MIC90 was 58.2 µM (≈ 21 µg/mL).

Tested on: not listed separately
Assay: MMV: Cytotoxicity CRC and LD50 against HepG2
Type: toxicity, cell-based
Conditions: human, HepG2 cells; read-out: LD50 (the source's name)
With `Cc1cc(NCCN2CCCCC2)c2ccc3ccccc3c2n1` the CC50 was 2.04 µM.
In the case of `COc1ccc(-c2cc(=O)oc3c4c(ccc23)OCN(Cc2ccc(F)cc2)C4)cc1`, the CC50 is reported as 40.5 µM.
With `CCOc1ccc2nc(C)cc(Nc3ccc(N(C)C)cc3)c2c1` the CC50 was 7.38 µM.
`CC1CCN(Cc2ccc(NC(=O)c3cc4ccc5cccnc5c4[nH]3)cc2)CC1` showed a CC50 of 4.42 µM.
With `Oc1ccc2ccccc2c1CNc1nc2ccccc2[nH]1` the CC50 was 14.1 µM.
Compound `Cc1c(C)n(Cc2ccc(F)cc2)c2ccc(C(=O)NCc3ccco3)cc12` has a CC50 greater than 100 µM.

Tested on: Mycobacterium tuberculosis
Assay: MMV: Screen against Mtb, single point, replicating, at 25uM
Type: functional
Conditions: not given
With `Cc1cc(NCCN2CCCCC2)c2ccc3ccccc3c2n1` the inhibition at 25 µM was 71.1%.
Work on `COc1ccc(-c2cc(=O)oc3c4c(ccc23)OCN(Cc2ccc(F)cc2)C4)cc1` yielded an inhibition at 25 µM of 90.5%.
Compound `CCOc1ccc2nc(C)cc(Nc3ccc(N(C)C)cc3)c2c1` has an inhibition at 25 µM of 78%.
For `CC1CCN(Cc2ccc(NC(=O)c3cc4ccc5cccnc5c4[nH]3)cc2)CC1`, the inhibition at 25 µM was 75.1%.
In the case of `Oc1ccc2ccccc2c1CNc1nc2ccccc2[nH]1`, the inhibition at 25 µM is reported as 76.1%.
For `O=C(Nc1nc(-c2ccccn2)cs1)c1ccccc1Br`, the inhibition at 25 µM was 95.3%.
`COc1ccc(C(O)(CCC(C)C)C(CN2CCOCC2)c2ccc(Cl)cc2)cc1` (configuration not stated) showed an inhibition at 25 µM of 4.78%.
Work on `COc1nc(Nc2ccc(C(C)C)cc2)nc(OC)n1` yielded an inhibition at 25 µM of 14%.
`O=C(NC(c1ccccc1)c1ccc2cccnc2c1O)c1ccccc1` (configuration not stated) showed an inhibition at 25 µM of 7.65%.
`COc1ccc2nc(C)cc(Nc3cccc(O)c3)c2c1` gave an inhibition at 25 µM of 7.96%.
`Cc1c(C)n(Cc2ccc(F)cc2)c2ccc(C(=O)NCc3ccco3)cc12` gave an inhibition at 25 µM of 69.5%.
`CCOC(=O)C1CCN(C(=O)CN2C(=O)c3ccccc3C2c2c[nH]c3ccccc23)CC1` (configuration not stated) showed an inhibition at 25 µM of 4.16%.
`CCN(CC)c1ccc(NC(=O)c2cccs2)cc1` showed an inhibition at 25 µM of 4.01%.
In the case of `Cc1cc(Nc2ccc(C)c(Cl)c2)n2nc(C(F)(F)F)nc2n1`, the inhibition at 25 µM is reported as 19.5%.
Work on `Cc1ccc(OCCCCCCNCCO)c(C)c1` yielded an inhibition at 25 µM of 17.5%.
In the case of `Cc1ccc(-c2cc(C(=O)Nc3ccc(S(=O)(=O)N4CCCCC4)cc3)[nH]n2)c(O)c1`, the inhibition at 25 µM is reported as 11.4%.
Compound `Cc1cc(Nc2ccc(Cl)cc2)n2nc(C(F)(F)F)nc2n1` has an inhibition at 25 µM of 9.63%.
In the case of `Cc1cc(=O)oc2c1ccc1oc(C(=O)c3ccccc3)c(C)c12`, the inhibition at 25 µM is reported as 13.4%.
`CCC(=O)Nc1nnc(Cc2ccc(OC)c(OC)c2)s1` showed an inhibition at 25 µM of -1.3%.
`CCn1c2c(c(=N)c3c1CCC3)CCCC2` gave an inhibition at 25 µM of 10.1%.
Work on `CCCCN(CCCC)S(=O)(=O)c1ccc(NC(=O)c2ccco2)cc1` yielded an inhibition at 25 µM of 8.56%.
Compound `Cc1cc(C)c2c(c1)OCN(Cc1ccccc1Cl)C2` has an inhibition at 25 µM of 9.78%.
For `Cc1ccc(-c2cc3c(nn2)-c2ccccc2C3=O)cc1`, the inhibition at 25 µM was 41.8%.
In the case of `Oc1ccc(C(=C(Cl)Cl)c2ccc(O)cc2)cc1`, the inhibition at 25 µM is reported as 9.95%.
For `Cc1cccc(Nc2nc(N)c3ccccc3n2)c1`, the inhibition at 25 µM was 9.63%.
Compound `O=C(NCC(c1ccsc1)N1CCCCCC1)c1ccc(C(F)(F)F)cc1` (configuration not stated) has an inhibition at 25 µM of 8.41%.
For `COc1ccc(-c2nc(N3CCN(C(=O)C4CCCCC4)CC3)c3c4c(sc3n2)CCCC4)cc1`, the inhibition at 25 µM was 14.2%.
Compound `O=C(Nc1ccccc1O)c1ccc(Oc2cccc(C(=O)Nc3ccccc3O)c2)cc1` has an inhibition at 25 µM of 11.8%.
Work on `Cc1ccc(S(=O)(=O)c2c(COC(=O)c3cccc(C)c3)c(-c3ccccc3)nn2C)cc1` yielded an inhibition at 25 µM of 9.01%.
Compound `Cc1[nH]c(-c2ccc(F)cc2)cc1C(=O)NC1CCN(Cc2ccccc2)CC1` has an inhibition at 25 µM of 20.7%.
